PMC10827914 (Cellular and Molecular Life Sciences: CMLS, 2024)
“And” between values parts separate entries of the source, which are not always exact repeats. Identical values can stand only once. “Also recorded” adds a separate entry of the source. Where a SMILES comes first, the peptide text is derived from it. Bridges are numbered along the chain shown (N, C = ends). Where no end group is shown, it is not given here.

What was measured:
[1] = biological target: T1, recombinant human CD13 (rCD13) (Homo sapiens, UniProt P15144); test: rCD13 enzyme inhibition assay, L-alanine 7-amido-4-methylcoumarin substrate; format: biochemical
T1 construct: consisting of the CD13 extracellular domain expressed in HEK-293 cells; His-tag; purchased Sino Biological 10051-H08H; host or cells: HEK-293 cells
T1 sequence (P15144 33-967 limits assumed): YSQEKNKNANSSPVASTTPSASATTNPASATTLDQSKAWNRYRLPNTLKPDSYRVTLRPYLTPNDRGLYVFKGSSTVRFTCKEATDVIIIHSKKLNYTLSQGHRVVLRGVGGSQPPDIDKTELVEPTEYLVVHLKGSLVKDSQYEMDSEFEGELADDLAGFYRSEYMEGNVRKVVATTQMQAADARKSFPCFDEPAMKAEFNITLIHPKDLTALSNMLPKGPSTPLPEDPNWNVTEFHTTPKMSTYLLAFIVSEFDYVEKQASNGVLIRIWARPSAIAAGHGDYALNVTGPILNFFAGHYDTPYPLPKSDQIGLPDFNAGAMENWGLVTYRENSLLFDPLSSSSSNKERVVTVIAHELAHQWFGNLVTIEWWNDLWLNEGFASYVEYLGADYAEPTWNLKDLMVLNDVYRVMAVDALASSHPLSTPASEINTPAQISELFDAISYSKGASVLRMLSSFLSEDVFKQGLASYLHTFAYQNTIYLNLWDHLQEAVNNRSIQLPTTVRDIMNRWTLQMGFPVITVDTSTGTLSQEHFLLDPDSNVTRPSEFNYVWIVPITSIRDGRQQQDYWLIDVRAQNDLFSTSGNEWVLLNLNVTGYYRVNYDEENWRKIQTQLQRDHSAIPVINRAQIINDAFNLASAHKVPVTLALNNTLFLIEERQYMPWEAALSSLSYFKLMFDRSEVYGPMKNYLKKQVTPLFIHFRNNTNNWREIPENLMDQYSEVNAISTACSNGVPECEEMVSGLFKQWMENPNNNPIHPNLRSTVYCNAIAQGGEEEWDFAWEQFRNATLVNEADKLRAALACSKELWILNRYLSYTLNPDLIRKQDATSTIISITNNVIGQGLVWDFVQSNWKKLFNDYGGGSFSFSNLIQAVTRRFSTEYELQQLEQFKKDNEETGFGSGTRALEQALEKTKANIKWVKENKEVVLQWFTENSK
Experimental: Recombinant CD13 (rCD13) enzyme activity and inhibition assays were performed as described previously using L-alanine-p-nitroanilide or L-alanine 7-amido-4-methylcoumarin as substrates in 60 mM Tris–HCl, pH 7.4, or 60 mM potassium phosphate buffer, pH 7.4. Mixtures containing peptides at various concentrations, rCD13 (0.2 µg/mL), and L-alanine-p-nitroanilide substrate (0.5 mM) in 60 mM potassium phosphate buffer, pH 7.4 (total volume, 0.1 ml) were prepared and left to react for 30 min at 37 °C. The products were then analyzed using a plate reader (iMark Microplate Absorbance Reader; Bio-Rad). Alternatively, the assay was performed using 0.1 mM L-alanine 7-amido-4-methylcoumarin in 60 mM Tris–HCl, pH 7.4, as a substrate. Fluorescence intensity of methylcoumarin was measured on an Infinite 200 PRO plate reader (Tecan) using the following settings: excitation wavelength: 341 nm; emission wavelength: 441 nm; excitation bandwidth: 9; emission bandwidth: 20 nm; gain: 109 manual; number of flashes: 25; integration time: 20 µs; lag time: 0 µs; settle time: 0 ms.
The IC50 of each inhibitor was calculated by non-linear regression analysis of inhibition data using GraphPad Prism Software (GraphPad Software, Version 9.00, San Diego, CA). Steady-state enzyme kinetic analyses were performed using various concentrations of L-alanine-p-nitroanilide (0–1.5 mM) and VGCARRYCS peptide (0–900 nM). The initial velocities (Vo) were calculated from the slopes of the first 5 min of reaction. The enzyme inhibitory constant (Ki) was calculated using the competitive enzyme inhibition model in GraphPad Prism Software.
Fig. 2 G4 recognizes soluble forms of CD13, with higher affinity and selectivity than bestatin, and the membrane forms expressed on the surface of HUVEC cells. A Inhibitory effects of G4 and bestatin on the enzymatic activities of different aminopeptidases (rCD13, APA, and APB). Various amounts of G4 or bestatin were incubated with rCD13 (0.2 µg/mL in 60 mM Tris–HCl pH 7.4), APA (0.2 µg/mL in 60 mM Tris–HCl pH 7.4, 50 mM calcium chloride, 200 mM sodium chloride) or APB (0.2 µg/mL in 60 mM Tris–HCl pH 7.4, 100 mM potassium chloride) and the corresponding substrates at 0.1 mM (L-alanine-7-amido-4-methylcoumarin for rCD13, L-glutamic acid γ-(7-amido-4-methylcoumarin) for APA, and L-arginine-7-amido-4-methylcoumarin for APB). The mixtures were incubated for 30 min at 37 °C, and the cleavage of each substrate was monitored by measuring the fluorescence of methylcoumarin (λex 341 nm; λem 441 nm) using an Infinite 200 PRO plate reader (Tecan). Three independent experiments were performed for each enzyme. The results of one representative experiment for each enzyme are shown (mean ± SEM, duplicates). B Inhibitory effects of G4 and bestatin on soluble CD13 immunocaptured from human serum (sCD13) using microtiter plates coated with anti-CD13 mAb WM15. The microtiter plate was filled with a solution of mAb WM15 (5 μg/ml in DPBS) and incubated overnight at 4 °C. The plate was then washed with DPBS, blocked with 3% bovine serum albumin (BSA) in DPBS, and filled with human serum containing soluble CD13 (diluted 1:2 with DPBS containing 2% BSA). After washing with DPBS, mixtures of G4 or bestatin (0–100 µM in 60 mM Tris–HCl, pH 7.4) and L-alanine p-nitroanilide hydrochloride substrate (4.5 mM in 60 mM Tris–HCl, pH 7.4) were added and left to incubate at 37 °C for 2 h. Substrate cleavage by sCD13 dissociated from mAb WM15 was then monitored by measuring the absorbance at 405 nm in each well using a plate reader (Bio-Rad). The results of one experiment performed in triplicate are shown (mean ± SEM). C Effect of G4 on the binding of the anti-CD13 mAb WM15 to HUVEC. HUVEC were seeded at a density of 2 × 10^5 cells in 100 µL DPBS supplemented with 5% normal human serum (NHS) and incubated with a mixture of G4 peptide (0, 0.1, 1, and 10 µM) and mAb WM15 (0 or 0.13 nM) as indicated. […]

[2] = test system: rCD13; test: Proteolytic effect of rCD13 on peptide G4 (mass spectrometry); format: in vitro ADME, human; conditions: G4 Lot #B 10 mM in 60 mM Tris-HCl pH 7.4; rCD13 0, 0.2, 2 µg/mL; 0, 0.5, 16 h; 37 °C; high resolution mass spectrometry
Experimental: Peptide G4 (Lot #B, synthetized and analyzed in-house) (10 mM, in 60 mM Tris-HCl, pH 7.4) was incubated with various amounts of rCD13 (0, 0.2 and 2 µg/mL) for 0, 0.5 and 16 h, as indicated, at 37°C. The enzyme activity was stopped by adding 10% acetic acid. Each sample was then desalted using Zip-tip C18 columns (Merck Millipore), dried in a SAVANT centrifuge, resuspended in 8 µl of 10% formic acid, and analyzed by high resolution mass spectrometry, using a Q-Exactive mass spectrometer (Thermo Scientific, Bremen, Germany) equipped with a nano-electrospray ion source (Proxeon Biosystems). Full scan spectra were acquired with the resolution set to 70000 and mass range from 300 to 1500 m/z. The mass spectra were deconvoluted using the Xtract option within the QualBrowser application of the Thermo Xcalibur software v.4.2.47.

[3] = test system: WEHI-164 fibrosarcoma; test: Antitumor activity in WEHI-164 fibrosarcoma-bearing mice; format: in vivo
Experimental: Female BALB/c mice (Charles River Laboratories, Calco, Italy), weighing 16–18 g, were subcutaneously injected into the left flank of 10^6 WEHI-164 cells (ATCC, cat. CRL-1751, Lot. 63,682,839). Dose-finding experiments were performed with groups of six mice treated with G4-TNF (4, 20, or 100 pg/dose in 100 μL of 0.9% sodium chloride containing 100 µg/ml HSA, intraperitoneally injected on day 5) or vehicle. Tumor growth was monitored daily by measuring tumor volume with calipers, as previously described. The animals were sacrificed before the tumor diameter reached 1.0–1.5 cm. To test whether the antitumor activity of G4-TNF was mediated by CD13, tumor-bearing mice (6 animals/group) were treated with a single injection of G4-TNF (100 pg/dose, i.p.) in combination with peptide CNGRC (100 µg/dose) or anti-CD13 mAb R3-63 (25 µg/dose, given 1.5 h i.p. before administration of G4-TNF) 5 days after tumor implantation.
Fig. 3 Effect of G4-TNF on tumor growth and body weight of mice bearing WEHI-164 fibrosarcomas. A Mice bearing subcutaneous WEHI-164 tumors (5–6 mice/groups) were treated 5 days after tumor implantation with a single intraperitoneal injection of G4-TNF (0, 4, 20, or 100 pg). Tumor volume and body weight after treatment were monitored daily. B Effect of mAb R3-63 (anti-murine CD13 antibody, 25 µg) and CNGRC peptide (100 µg) on the antitumor activity of G4-TNF (100 pg) (5–6 mice/group). The arrows indicate the time of treatment. *P < 0.05; **P < 0.01, by Mann–Whitney analysis of the area under the curve for each tumor, with the GraphPad Prism software (mean ± SEM)
A) Mice bearing subcutaneous WEHI-164 tumors (6 mice/groups), were treated 5-6 days after tumor implantation with a single intraperitoneal injection of murine NGR-TNF (0, 25, 50, or 100 pg). Tumor volume and body weight after treatment were monitored daily.
B) Effect of murine TNF (50 pg) on tumor growth and body weight. The arrows indicate the time of treatment (mean ± SEM).

[4] = test system: rCD13 (His-tagged recombinant human CD13); test: rCD13 (2 µg/mL) in 60 mM Tris-HCl, pH 7.4; conditions: 37°C, up to 16 h
[5] = biological target: T2, His-tagged recombinant human CD13 (rCD13) (human, UniProt P15144 33-967); test: steady-state enzyme inhibition kinetics; rCD13 with L-alanine-p-nitroanilide (0-1.5 mM) and … (0-900 nM), 60 mM potassium phosphate buffer, pH 7.4, 37 °C; initial velocities of the first 5 min; competitive enzyme inhibition model (GraphPad Prism); conditions: both partners purified
T2 construct: aminopeptidase N / CD13, human, extracellular domain (soluble ectodomain); also called recombinant soluble CD13; recombinant CD13 ectodomain; source: bought: Sino Biological (cat. 10051-H08H), expressed in HEK-293 cells
T2 sequence (P15144 33-967): as the sequence (P15144 33-967 limits assumed) above

[6] = biological target: His-tagged recombinant human CD13 (rCD13) (human) (UniProt P15144)
His-tagged recombinant human CD13 (rCD13) (human), sequence (P15144 33-967): as the sequence (P15144 33-967 limits assumed) above

Molecule: CC(C)[C@H](N)C(=O)NCC(=O)N[C@H]1CSSC[C@@H](C(=O)N[C@@H](CO)C(=O)O)NC(=O)[C@H](Cc2ccc(O)cc2)NC(=O)[C@H](CCCNC(=N)N)NC(=O)[C@H](CCCNC(=N)N)NC(=O)[C@H](C)NC1=O [G4] (H-VGCARRYCS-OH; disulfide 3-8)
- IC50 ([1]; 0.1 mM L-alanine 7-amido-4-methylcoumarin, 60 mM Tris-HCl pH 7.4, fluorescence, mean ± SEM of n independent experiments, read-out: IC50: peptide concentration that inhibits 50% of rCD13 enzymatic activity): 130 ± 20 nM
- IC50 of G4 for rCD13 lower than that of bestatin ([1]; Fig. 2A): 4–5 fold
- Cleavage of the peptide by rCD13 (stability) [2]: cleavage of Val-1 and Gly-2 was observed only after a long incubation time (16 h) with a large amount of enzyme (2 µg/ml)

Molecule: CNGRC [reference compound]
- Effect on the antitumor activity of G4-TNF ([3]; G4-TNF 100 pg i.p. with mAb R3-63 25 µg (1.5 h before) or CNGRC 100 µg): markedly reduced (almost completely)

Molecule: VGCARRYCS
- cleaved bond [4]: Val1-Gly2, 16 h; also recorded: Gly2-Cys3, 16 h

B1: TNF: murine TNF (not linked to G4) (protein)
chain: MSTESMIRDVELAEEALPQKMGGFQNSRRCLCLSLFSFLLVAGATTLFCLLNFGVIGPQRDEKFPNGLPLISSMAQTLTLRSSSQNSSDKPVAHVVANHQVEEQLEWLSQRANALLANGMDLKDNQLVVPADGLYLVYSQVLFKGQGCPDYVLLTHTVSRFAISYQEKVNLLSAVKSPCPKDTPEGAELKPWYEPIYLGGVFQLEKGDQLSAEVNLPKYLDFAESGQVYFGVIAL
- Antitumor effect (tumor growth) ([3]; single intraperitoneal injection of 50 pg): totally inactive

B2: peptide VGCARRYCS (disulfide-bridged, called G4) (peptide)
peptide: VGCARRYCS
modifications: disulfide 3-8 (inferred)
notes: optimised CD13 ligand peptide; also called free G4 peptide; source: synthetic peptide
- Ki [5]: 21 nM and ~22 nM

Molecule: VGCGRRYCSN (disulfide 3-8 (inferred)) [peptide … (disulfide-bridged)]
- IC50 of inhibition of rCD13 enzymatic activity (L-alanine-p-nitroanilide substrate) [6]: 2010 nM
